One may read the EC50 as the concentration giving half of the maximal effect. The term AC50 denotes the concentration at which the activity in the assay is half-maximal.

Where a name gives a salt, the structure may show the parent alone. Calls of active or inactive are those of the source.

The source of these data is ChEMBL document CHEMBL1201862, “PubChem BioAssay data set” (2004).

Experiment [1] concerns the target T1, Low molecular weight phosphotyrosine protein phosphatase (Homo sapiens, UniProt P24666).
T1 sequence (P24666 whole entry): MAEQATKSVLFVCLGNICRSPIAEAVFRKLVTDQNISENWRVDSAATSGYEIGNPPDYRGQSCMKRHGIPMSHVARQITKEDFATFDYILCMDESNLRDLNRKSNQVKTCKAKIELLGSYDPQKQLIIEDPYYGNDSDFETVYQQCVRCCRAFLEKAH
It is filed as functional. Conditions: read-out: IC50_Mean.

Experiment [2] has as its target T1, Low molecular weight phosphotyrosine protein phosphatase. In kind it is functional. Particulars: read-out: IC50_Mean. The source holds these as a separate data set.
The target in experiment [3] is T2, Carboxy-terminal domain RNA polymerase II polypeptide A small phosphatase 1 (Homo sapiens, UniProt Q9GZU7).
T2 sequence (Q9GZU7 whole entry): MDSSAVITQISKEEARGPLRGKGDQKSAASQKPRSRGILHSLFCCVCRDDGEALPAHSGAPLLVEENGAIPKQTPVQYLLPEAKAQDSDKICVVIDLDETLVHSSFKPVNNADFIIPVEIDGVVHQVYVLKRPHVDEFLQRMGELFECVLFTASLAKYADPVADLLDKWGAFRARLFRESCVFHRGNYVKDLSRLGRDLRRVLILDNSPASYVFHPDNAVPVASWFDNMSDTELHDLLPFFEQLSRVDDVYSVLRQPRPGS
The experiment can be described thus: inhibitors of CTDSP1, concentration-response testing, biochemical assay, absorbance-based, actives from ultra-high-throughput screening (AID 540297). In kind it is functional.

Experiment [4] has as its target Interleukin-8 (Homo sapiens, UniProt P10145). Briefly: Dose Response confirmation of uHTS small molecule hits for cystic fibrosis induced NFkb Inhibitors in a PAF-induced IL8 counterscreen. It is filed as functional. Conditions: read-out: IC50_Mean. (Counterscreens check selectivity or assay interference.)
Experiment [5] addresses T3, High affinity choline transporter 1 (Homo sapiens, UniProt Q9GZV3).
T3 sequence (Q9GZV3 whole entry): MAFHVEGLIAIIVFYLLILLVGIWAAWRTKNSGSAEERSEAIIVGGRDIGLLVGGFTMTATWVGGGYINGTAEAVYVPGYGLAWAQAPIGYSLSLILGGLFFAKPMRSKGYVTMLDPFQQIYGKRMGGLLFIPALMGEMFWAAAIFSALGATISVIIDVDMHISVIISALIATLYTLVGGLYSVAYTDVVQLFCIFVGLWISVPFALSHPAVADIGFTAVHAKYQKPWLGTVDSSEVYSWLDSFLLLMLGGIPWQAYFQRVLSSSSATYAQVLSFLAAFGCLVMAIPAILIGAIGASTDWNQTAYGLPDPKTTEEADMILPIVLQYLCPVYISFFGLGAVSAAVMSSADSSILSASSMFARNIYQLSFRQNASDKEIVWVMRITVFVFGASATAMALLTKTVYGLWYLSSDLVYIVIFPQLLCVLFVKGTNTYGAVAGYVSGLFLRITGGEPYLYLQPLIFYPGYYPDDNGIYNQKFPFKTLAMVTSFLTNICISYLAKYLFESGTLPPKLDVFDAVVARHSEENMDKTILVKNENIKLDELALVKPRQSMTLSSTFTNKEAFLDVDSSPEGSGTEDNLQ
Briefly: CHT inhibitors, dose response, cell-based, 5-point CRC, membrane potential dye (AID 504840). It is filed as functional.

In experiment [6] the target is T3, High affinity choline transporter 1. Briefly: CHT inhibitors, dose response, cell-based, 10-point CRC, membrane potential dye (AID 588401).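 Note: membrane potential dye fluorescence of choline-evoked depolarization via CHT.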 It is filed as functional.
In experiment [7] the target is Photoreceptor-specific nuclear receptor (Homo sapiens, UniProt Q9Y5X4). In kind it is functional, cell-based.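 Note: CHO-S cells with Gal4-NCOR and VP16-NR2E3 two-hybrid luciferase reporter.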
Chain of Photoreceptor-specific nuclear receptor (Q9Y5X4 whole entry, the tested form may be a part): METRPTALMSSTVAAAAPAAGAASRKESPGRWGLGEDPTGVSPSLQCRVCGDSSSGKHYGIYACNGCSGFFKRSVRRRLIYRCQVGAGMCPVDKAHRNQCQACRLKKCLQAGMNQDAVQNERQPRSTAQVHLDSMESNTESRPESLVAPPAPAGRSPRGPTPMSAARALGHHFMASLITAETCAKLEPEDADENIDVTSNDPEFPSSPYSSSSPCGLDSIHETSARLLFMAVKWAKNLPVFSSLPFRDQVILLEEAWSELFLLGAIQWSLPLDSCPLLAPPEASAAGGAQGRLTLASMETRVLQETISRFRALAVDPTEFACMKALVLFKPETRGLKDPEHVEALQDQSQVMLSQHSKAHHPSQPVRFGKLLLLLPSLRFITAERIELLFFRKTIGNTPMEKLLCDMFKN
A short description of experiment [8]: cytotoxicity toward NIH3T3 fibroblasts, dose response, counter-screen, cell-based, ATP luminescence, mouse fibroblasts (AID 2010).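 Note: cells exposed to compound for about 90 hours before reading.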 In kind it is functional.
Experiment [9] in a line: inhibitors of intracellular T. cruzi replication, confirmation, NIH3T3 host cells, beta-gal luminescence (AID 2044).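 Note: intracellular parasites grown in NIH/3T3 mouse fibroblasts as host cells; luminescent beta-galactosidase reporter signal from transgenic T. cruzi replicating inside host cells; inhibitors lower the luminescence signal.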 It is filed as functional, cell-based.
The target of experiment [10] is T3, High affinity choline transporter 1. The experiment can be described thus: CHT activators, dose response, cell-based, 10-point CRC, membrane potential dye (AID 602376). It is filed as functional.
In experiment [11] the target is Beta-galactosidase (Escherichia coli, UniProt Q8VNN2). Briefly: Dose response counterscreen for EBI2 assay utilizing the enzyme, b-galactosidase. It is filed as functional.
Chain of Beta-galactosidase (Q8VNN2 whole entry): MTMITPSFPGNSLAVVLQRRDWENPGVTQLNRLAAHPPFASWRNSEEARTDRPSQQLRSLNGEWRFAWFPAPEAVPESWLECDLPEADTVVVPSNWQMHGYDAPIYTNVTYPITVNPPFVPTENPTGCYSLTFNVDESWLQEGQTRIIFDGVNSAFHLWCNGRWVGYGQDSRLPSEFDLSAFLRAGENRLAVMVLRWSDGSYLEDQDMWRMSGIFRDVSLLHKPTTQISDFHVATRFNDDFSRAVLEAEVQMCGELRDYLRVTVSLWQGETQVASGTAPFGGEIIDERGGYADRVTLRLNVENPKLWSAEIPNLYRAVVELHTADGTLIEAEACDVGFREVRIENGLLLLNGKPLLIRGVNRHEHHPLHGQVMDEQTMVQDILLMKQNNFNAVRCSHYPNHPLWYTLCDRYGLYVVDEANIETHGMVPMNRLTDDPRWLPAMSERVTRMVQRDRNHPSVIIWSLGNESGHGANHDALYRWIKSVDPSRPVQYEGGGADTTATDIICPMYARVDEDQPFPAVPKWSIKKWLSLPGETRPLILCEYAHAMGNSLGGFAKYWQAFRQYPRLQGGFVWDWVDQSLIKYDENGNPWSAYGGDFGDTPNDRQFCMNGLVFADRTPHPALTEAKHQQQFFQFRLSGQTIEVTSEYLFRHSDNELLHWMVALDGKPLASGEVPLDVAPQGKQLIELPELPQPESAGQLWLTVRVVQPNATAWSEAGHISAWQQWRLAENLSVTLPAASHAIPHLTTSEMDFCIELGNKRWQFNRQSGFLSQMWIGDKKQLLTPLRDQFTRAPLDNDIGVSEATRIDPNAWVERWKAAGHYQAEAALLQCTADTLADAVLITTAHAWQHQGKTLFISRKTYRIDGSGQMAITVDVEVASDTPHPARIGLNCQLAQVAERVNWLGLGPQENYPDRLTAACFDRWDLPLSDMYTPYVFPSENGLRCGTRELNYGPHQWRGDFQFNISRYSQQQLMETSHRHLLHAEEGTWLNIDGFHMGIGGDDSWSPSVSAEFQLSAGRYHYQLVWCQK
The subject of experiment [12] is INS1. Briefly: beta cell apoptosis inhibitors, cytokine rescue, dose response, luminescence, retest (AID 449756).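 Note: cell death triggered by IL-1 beta plus TNF-alpha plus IFN-gamma mixture; protective hits raise ATP signal compared with cytokine alone wells.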 It is filed as functional, cell-based. Particulars: Rattus norvegicus.

Chain of Interleukin-8 (P10145 whole entry): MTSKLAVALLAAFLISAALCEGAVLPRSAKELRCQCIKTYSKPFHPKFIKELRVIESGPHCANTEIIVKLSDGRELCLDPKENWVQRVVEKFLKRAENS

As to `N=c1c2ccccc2nnn1-c1ccc(C(F)(F)F)cc1`, the IC50 in [1] was 12.8 µM (active); in [2], 18.8 µM (active); in experiment [3], 8.01 µM (active).
For the compound `CC(=O)c1c(C)n(-c2ccc(C)cc2C)c2ccc(O)cc12`, the IC50 in experiment [4] is > 79 µM (inactive).
In the case of `CC(C)(C)NCC(O)c1cc(Cl)c(N)c(Cl)c1` (centres undefined) [CLENBUTEROL HYDROCHLORIDE], the IC50 in [5] is 0.0288 µM (active); in [6], 0.000897 µM (active).
With `Cc1ccc(N/C(S)=C(\C#N)c2nc3ccccc3s2)cc1`, the IC50 in [7] was 1.49 µM (active).
In the case of `COc1ccc(C(=O)c2c3ccc(C(F)(F)F)cc3[n+]([O-])n2CCCN)cc1`, the IC50 in [5] was 9.03 µM (active); in experiment [6], 4.47 µM (active).
As to `CCC(C)(C)n1nnnc1C(c1cccnc1)N1CCN(c2cccc(C(F)(F)F)c2)CC1` (centres undefined), the EC50 in experiment [8] is > 60 µM (not active); in experiment [9], 0.101 µM (active); in experiment [10], 16 µM (active).
In the case of `COc1cc(-c2nc3ccc(C)cn3c2NCc2ccccc2)ccc1-c1cccc(Cl)c1`, the IC50 in [11] was 96 µM (inactive). The AC50 in [12] was 5.14 µM (active).
